Experimental data: patent publication US12577217B2, “15-PGDH inhibitor” (KYORIN Pharmaceutical Co., Ltd., priority 2019, dated 2026)

Target: T1, recombinant human 15-PGDH (Homo sapiens, UniProt P15428)
T1 construct: purchased R&D Systems
T1 sequence (P15428 1-266): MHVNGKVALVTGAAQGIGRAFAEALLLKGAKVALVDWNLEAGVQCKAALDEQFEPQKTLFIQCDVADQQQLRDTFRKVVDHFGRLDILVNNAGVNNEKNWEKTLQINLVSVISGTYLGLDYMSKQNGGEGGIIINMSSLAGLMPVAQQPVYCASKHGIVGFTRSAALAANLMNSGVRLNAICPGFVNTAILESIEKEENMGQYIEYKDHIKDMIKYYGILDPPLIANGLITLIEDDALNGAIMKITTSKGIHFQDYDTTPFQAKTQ
Assay: 15-PGDH enzyme inhibition test
Type: biochemical
Conditions: 4 nM recombinant human 15-PGDH, 30 μM PGE2, 1 mM NAD+, 60 minutes after starting the reaction; read-out: IC50 Value
Procedure, shortened: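 Fluorescence (excitation 340 nm, emission 440 nm) measured 60 min after adding 1 mM NAD+ and 30 μM PGE2 to 4 nM recombinant human 15-PGDH, which had stood 12 min at room temperature with compound in pH 8.0 Tris-HCl buffer. Concentration-response curves yield IC50, binned into potency categories.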

IC50: < 0.01 µM
Compound: Cn1nc2cc(N3CCOc4cc(C(=O)N5CCCC(C)(C)C5)cnc43)ccn2c1=O [Example 8-110]
